Test results as given in patent US20220296635A1 (Board of Regents, The University of Texas System, priority 2013, published 2022).

Tests used:
[1] = tested on: Bone marrow stromal cells (BMSCs); assay: Calcium nodule formation in BMSC cultures (Von Kossa staining); type: cell-based, Sprague-Dawley rats; details: 12 days of osteogenic induction
Procedure: Methods of promoting bone growth according to some embodiments described herein were carried out as follows. Bone marrow stromal cells (BMSCs) derived from 6 week old male Sprague-Dawley rats were cultured in growth medium containing Minimum Essential Medium Alpha (αMEM) supplemented with 10% (V/V) fetal bovine serum (FBS), 0.25 μg/mL Fungizone, and 1% (V/V) penicillin and streptomycin in 6-well plates at a density of 2×10^5 cells/well (Day 0). […] After 12 days of osteogenic induction, the BMSCs cultures were stained with Von Kossa staining and imaged by optical microscopy. The numbers of calcium nodules per well were counted in the inverted microscope. The total area of the calcium nodules was also calculated. FIG. 6A illustrates microscope images of Von Kossa staining. FIG. 6B illustrates the number of observed calcium nodules. FIG. 6C illustrates the total area of the calcium nodules.

osteopontin (OPN) = assay: Osteopontin protein level in hMSCs by Western Blot; type: cell-based, Human; details: 20 μM, 200 μM or 2000 μM citrate; 7 days and 14 days
Procedure: (§1) Methods of promoting bone growth according to some embodiments described herein were carried out as follows. Human mesenchymal stem cells (hMSCs) (Lonza Walkersville Inc., USA) were cultured in Dulbecco's Modified Eagle's Medium (DMEM) supplemented with 10% FBS and 1% penicillin and streptomycin. For differentiation, hMSCs were switched to an osteogenic medium (OGM) comprising the previous DMEM-based medium further supplemented with 10^−7 M β-glycerophosphate and 50 μM ascorbic acid-2-phosphate. The hMSC cells were seeded at a density of 10^4 cells/mL after 80-90% confluence in 96-well plates. […] Media were changed every other day.

[2] = tested on: Human mesenchymal stem cells (hMSCs); assay: Calcium deposit formation in differentiated hMSC cultures (Von Kossa staining); type: cell-based; details: 20 μM citrate, osteogenic medium; 7, 14 and 21 days
Procedure: as §1, with “For differentiation, hMSCs were switched to an osteogenic medium (OGM) comprising the previous DMEM-based medium further supplemented with 10^−7 M β-glycerophosphate and 50 μM ascorbic acid-2-phosphate.” left out

[3] = tested on: osteosarcoma cells (Saos-2 cells); assay: Saos-2 cell proliferation (MTT assay); type: cell-based
Procedure: Methods of inhibiting cancer growth according to some embodiments described herein were carried out as follows. […] Human mesenchymal stem cells (hMSCs) (Lonza Walkersville Inc., USA) were cultured in growth medium composed of Dulbecco's Modified Eagle's Medium (DMEM) supplemented with 10% FBS and 1% penicillin/streptomycin and then seeded in a 96-well plates at a density of 10^4 cells/mL after 80-90% confluence. […] The hMSCs were incubated with the citrate-supplemented media at 37° C. with 5% CO2. Media were changed every other day. […] After incubating at 37° C. for 4 hrs in MTT working solution, the hMSCs in the 96-well plates were submerged in dimethylsulfoxide (DMSO) for 15 minutes on an orbital shaker under dark conditions. The 96-well plates were then placed on a Micro-plate Reader to obtain absorbance values at 595 nm. In addition, live/dead staining was carried out at pre-determined time points (1 day, 4 days, and 7 days). The hMSCs were stained with live/dead working solution (Life Technologies Inc., USA) for 30 minutes and then observed under a Nikon Inverted Fluorescence Microscope to determine cell viability.
The hMSCs were cultured as described above. The Saos-2 cells were cultured in McCoy's 5A medium (Lonza Walkersville Inc., USA) supplemented with 10% FBS and 1% penicillin/streptomycin. […]

**Q.** What does the source list for `O=C(O)CC(O)(CC(=O)O)C(=O)O` [citrate, citric acid]?
**A.** number and size of calcium nodules ([1]; citrate concentration of 20 μM): induced the highest number of calcium nodules; calcium nodule formation ([1]; citrate-supplemented osteogenic media (2 μM to 5 mM citric acid)): promoted calcium module formation in a dose-dependent manner; OPN expression (osteopontin (OPN)): closely associated in a dose-dependent relationship; calcium deposit formation [2]: able to promote calcium deposit formation; Saos-2 cell proliferation ([3]; concentrations above 800 μM, 1 day and 4 days): inhibit Saos-2 cell proliferation; Saos-2 cell killing ([3]; concentrations above 2000 μM): most Saos-2 cells were killed
